Reference: PubChem BioAssay (NCI)
Several values for one entry are separate records, joined by “and”; a condition that tells them apart may be missing. Equal entries are not always repeated.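 Cells were grown in 96-well plates and exposed to each compound for 48 hours at five concentrations; endpoints were interpolated linearly between bracketing concentrations, or set to the highest concentration if not reached. GI50 = concentration required for 50% inhibition of growth. TGI: total growth inhibition.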

How the values were obtained:
Assay in all cases: NCI-60 cell line screen, 48 h
SF-295 CNS = system: SF-295 CNS
NCI-H460 lung = system: NCI-H460 lung
HCC-2998 colon = system: HCC-2998 colon
UACC-257 melanoma = system: UACC-257 melanoma
T-47D breast = system: T-47D breast
EKVX NSCLC = system: EKVX NSCLC
M14 melanoma = system: M14 melanoma
BT-549 breast = system: BT-549 breast
TK-10 renal = system: TK-10 renal
LOX IMVI melanoma = system: LOX IMVI melanoma
SF-268 CNS = system: SF-268 CNS
ACHN renal = system: ACHN renal
KM12 colon = system: KM12 colon

Structure (SMILES) | TGI (SF-295 CNS) | TGI (NCI-H460 lung) [µM] | TGI (HCC-2998 colon) [µM] | TGI (UACC-257 melanoma) | TGI (T-47D breast) [µM] | TGI (EKVX NSCLC) | TGI (M14 melanoma) [µM] | TGI (BT-549 breast) | TGI (TK-10 renal) | TGI (LOX IMVI melanoma) [µM] | TGI (SF-268 CNS) [µM] | TGI (ACHN renal) | GI50 (SF-295 CNS) | GI50 (NCI-H460 lung) | GI50 (TK-10 renal) | GI50 (LOX IMVI melanoma) | GI50 (KM12 colon) | TGI (KM12 colon) | GI50 (ACHN renal)
COC(=O)/C(C#N)=C(/NCc1ccccc1)Nc1ccccc1 | > 100 µM | > 100 | > 100 | > 100 µM | > 100 | > 100 µM | > 100 | > 100 µM | > 100 µM | > 100 | > 100 | > 100 µM | – | – | – | – | – | – | –
C=CCN1C(=O)/C(=C/c2ccc(OC)cc2)N=C1SC1OC(COC(C)=O)C(OC(C)=O)C(OC(C)=O)C1OC(C)=O (stereo unspecified) | 48.8 µM and > 100 µM | > 100 | > 100 | 45.9 µM and > 100 µM | 67.5 | 46 µM and > 100 µM | > 100 | 38.1 µM and 96.1 µM | 39.6 µM and > 100 µM | > 100 | – | 32.3 µM and > 100 µM | 21 µM and 70.3 µM | 24.7 µM and 99.9 µM | 20.2 µM and > 100 µM | 21.1 µM and 43.1 µM | 21.4 µM and > 100 µM | 62.5 µM and > 100 µM | 15.4 µM and 77.3 µM
N#CCCN(CCCN(C(=O)Nc1ccc(NC(=O)N(CCCN(CCC#N)C(N)=O)c2ccccc2)cc1)c1ccccc1)C(N)=O | > 100 µM | > 100 | > 100 | > 100 µM | > 100 | > 100 µM | > 100 | > 100 µM | > 100 µM | > 100 | > 100 | > 100 µM | – | – | – | – | – | > 100 µM | –
CC(C(=O)O)C1Nc2ccccc2NC1=O (stereo unspecified) | > 100 µM | > 100 | > 100 | > 100 µM | > 100 | > 100 µM | > 100 | > 100 µM | > 100 µM | > 100 | > 100 | > 100 µM | – | – | – | – | – | > 100 µM | –
C=C1C(=O)OC2/C=C(\C)CC/C=C(\C)CC(OC(=O)/C(=C/CO)CO)[C@@H]12 (stereo partly specified) | > 100 µM | 48.8 | 33.5 | 24.2 µM | 15.9 | 29 µM | 11.4 | 26.5 µM | 15.8 µM | 31.1 | 45 | 19.3 µM | – | – | – | – | – | 35.1 µM | –
CC(C)(C)OC(=O)NCC(=O)N(CCc1ccc(Cl)c(Cl)c1)CCN1CCCC1 | 33.1 µM | 30.2 | 16.2 | 29.9 µM | 53.5 | 48.1 µM | 28.6 | 42.1 µM | 31.5 µM | 29.3 | 31.6 | 40.8 µM | – | – | – | – | – | 32.6 µM | –
O=C1CC2(CCNCC2)C(=O)N1N1CCCCC1 | > 100 µM | > 100 | > 100 | > 100 µM | > 100 | > 100 µM | > 100 | > 100 µM | > 100 µM | > 100 | > 100 | > 100 µM | – | – | – | – | – | > 100 µM | –
O=C1/C(=C/c2ccc(OC(=O)c3ccc(Cl)cc3)cc2)CCC/C1=C\c1ccc(OC(=O)c2ccc(Cl)cc2)cc1 | – | > 100 | > 100 | > 100 µM | > 100 | > 100 µM | > 100 | > 100 µM | > 100 µM | > 100 | > 100 | > 100 µM | – | – | – | – | – | > 100 µM | –
CN(C)c1cccc(/C=C(\C#N)c2ccccc2)c1 | 15.1 µM | 12.5 | 7.28 | > 71.7 µM | 86.5 | > 100 µM | > 47.2 | > 100 µM | 56.6 µM | > 59.5 | > 100 | > 100 µM | – | – | – | – | – | 8.92 µM | –
CC(C)N(C(=O)C12C3(C(=O)C(C)(C)C)C4C5(C#N)C3C1(C(=O)C(C)(C)C)C5C42C(=O)C(C)(C)C)C(C)C (stereo unspecified) | > 100 µM | > 100 | > 100 | > 100 µM | > 100 | > 100 µM | > 100 | > 100 µM | > 100 µM | > 100 | > 100 | > 100 µM | – | – | – | – | – | > 100 µM | –
O=C1Nc2ccccc2/C1=N/N1C(=O)/C(=C/c2ccccc2S)N=C1c1ccccc1 | > 100 µM | > 100 | > 100 | > 100 µM | 81.8 | > 100 µM | > 100 | > 100 µM | > 100 µM | > 100 | > 100 | > 100 µM | – | – | – | – | – | > 100 µM | –
N#Cc1nc(-c2ccc(-c3nc(C#N)c(N)o3)cc2)oc1N | > 10 µM | > 10 | > 10 | > 10 µM | > 10 | > 10 µM | > 10 | > 10 µM | > 10 µM | > 10 | > 10 | > 10 µM | – | – | – | – | – | > 10 µM | –
COc1ccc2c(c1)C1c3ccccc3CCN1CCC2 (stereo unspecified) | 54 µM | – | 63.5 | > 100 µM | > 100 | > 100 µM | > 100 | 68.2 µM | > 100 µM | > 100 | > 100 | > 100 µM | – | – | – | – | – | > 100 µM | –
